Measurements published in the NIST ThermoML archive (doi:10.1016/j.jct.2016.02.014).
± gives the expanded uncertainty stated by the source.

What was measured:
[1] = xn = mol fraction of the nth substance listed; settings: 100 kPa, Liquid, x1 = 1; for viscosity: Capillary tube (Ostwald / Ubbelohde) method; for mass density: Vibrating tube method
[2] = 101.33 kPa, Liquid; for viscosity: Capillary tube (Ostwald / Ubbelohde) method; for mass density: Vibrating tube method

CCCCn1cc[n+](C)c1.N#CN=C=[N-] [1-butyl-3-methylimidazolium dicyanamide] + O=C1CCCO1
[1]
Settings	mass density [kg/m3]	viscosity [mPa·s]
273.15 K	1075.2 ± 8.6	95.68 ± 2.4
283.15 K	1068.94 ± 8.6	55.27 ± 1.2
293.15 K	1062.52 ± 8.5	35.04 ± 0.8
298.15 K	1059.33 ± 8.5	28.5 ± 0.65
303.15 K	1056.15 ± 8.5	23.52 ± 0.53
313.15 K	1049.85 ± 8.4	16.95 ± 0.39
323.15 K	1043.61 ± 8.4	12.65 ± 0.29

CCCCn1cc[n+](C)c1.N#CN=C=[N-] [1-butyl-3-methylimidazolium dicyanamide]
[2]
Settings	mass density [kg/m3]	viscosity [mPa·s]
273.15 K	1075.2 ± 8.6	95.68 ± 2.4
278.15 K	1072.13 ± 8.6	71.85 ± 1.7
283.15 K	1068.94 ± 8.6	55.27 ± 1.2
288.15 K	1065.72 ± 8.6	43.57 ± 0.99
293.15 K	1062.52 ± 8.5	35.04 ± 0.8
298.15 K	1059.33 ± 8.5	28.5 ± 0.65
303.15 K	1056.15 ± 8.5	23.52 ± 0.53
308.15 K	1052.99 ± 8.5	19.87 ± 0.45
313.15 K	1049.85 ± 8.4	16.95 ± 0.39
318.15 K	1046.72 ± 8.4	14.61 ± 0.33
323.15 K	1043.61 ± 8.4	12.65 ± 0.29
328.15 K	1040.51 ± 8.4	–
333.15 K	1037.43 ± 8.3	–
